The record followed here is patent US4450269A, “Mono-5-substituted-3-chloro-4H-1,2,6-thiadiazin-4-one antifungal agents” (FMC Corporation, priority 1980, dated 1984).

Assay [1] has as its system Pyricularia oryzae. Description: whole plant or invertebrate. Format: in vivo. The settings on record: Pyricularia oryzae, foliar, 24 h, read-out: Percent Disease Control, curative, rice blast, 150 ppm, 24 hours after inoculation.
Assay [2] relates to Pyricularia oryzae. Description: microbe, parasite or virus in culture. It counts as cell-based. The settings on record: Pyricularia oryzae, 72 h; for inhibition at 5 ppm: read-out: Percent Fungus Growth Inhibition, PO, 5 ppm, 72 hours; for inhibition at 10 ppm: read-out: Percent Fungus Growth Inhibition, PO, 10 ppm, 72 hours; for inhibition at 20 ppm: read-out: Percent Fungus Growth Inhibition, PO, 20 ppm, 72 hours; for inhibition at 40 ppm: read-out: Percent Fungus Growth Inhibition, PO, 40 ppm, 72 hours.

Consider `Cc1cc(Oc2nsnc(Cl)c2=O)cc(C)c1Br` [Compound 60, 3-[(4-bromo-3,5-dimethyl)-phenoxy]-5-chloro-4H--1,2,6-thiadiazin-4-one], for which the pest or weed control at 150 ppm with Pyricularia oryzae [1] turned out to be 0%. In the assay on Pyricularia oryzae [2], the inhibition at 5 ppm was found to be 32%, the inhibition at 10 ppm came to 43%, the inhibition at 20 ppm was found to be 43% and the inhibition at 40 ppm worked out at 64%.

For the compound `COc1cc(Oc2nsnc(Cl)c2=O)cc(OC)c1C(C)=O` [Compound 61, 3-[(4-acetyl-3,5-dimethoxy)-phenoxy]-5-chloro-4H--1,2,6-thiadiazin-4-one], the pest or weed control at 150 ppm in the assay with Pyricularia oryzae [1] was 0%. Further, in the assay on Pyricularia oryzae [2], the inhibition at 5 ppm came to 28%, the inhibition at 10 ppm amounted to 42%, the inhibition at 20 ppm is 50% and the inhibition at 40 ppm worked out at 44%.
